From patent US20200239530A1, “COMPOUNDS AND METHODS OF MODULATING PROTEIN DEGRADATION” (Vividion Therapeutics, Inc., priority 2017, published 2020)

Target: T1, HERC4 Probable E3 ubiquitin-protein ligase HERC4 (Homo sapiens, UniProt Q5GLZ8)
T1 construct: Cells were resuspended in cold PBS on ice and sonicated with a probe sonicator to achieve lysis; endogenous in cells
T1 sequence (Q5GLZ8 1-1057): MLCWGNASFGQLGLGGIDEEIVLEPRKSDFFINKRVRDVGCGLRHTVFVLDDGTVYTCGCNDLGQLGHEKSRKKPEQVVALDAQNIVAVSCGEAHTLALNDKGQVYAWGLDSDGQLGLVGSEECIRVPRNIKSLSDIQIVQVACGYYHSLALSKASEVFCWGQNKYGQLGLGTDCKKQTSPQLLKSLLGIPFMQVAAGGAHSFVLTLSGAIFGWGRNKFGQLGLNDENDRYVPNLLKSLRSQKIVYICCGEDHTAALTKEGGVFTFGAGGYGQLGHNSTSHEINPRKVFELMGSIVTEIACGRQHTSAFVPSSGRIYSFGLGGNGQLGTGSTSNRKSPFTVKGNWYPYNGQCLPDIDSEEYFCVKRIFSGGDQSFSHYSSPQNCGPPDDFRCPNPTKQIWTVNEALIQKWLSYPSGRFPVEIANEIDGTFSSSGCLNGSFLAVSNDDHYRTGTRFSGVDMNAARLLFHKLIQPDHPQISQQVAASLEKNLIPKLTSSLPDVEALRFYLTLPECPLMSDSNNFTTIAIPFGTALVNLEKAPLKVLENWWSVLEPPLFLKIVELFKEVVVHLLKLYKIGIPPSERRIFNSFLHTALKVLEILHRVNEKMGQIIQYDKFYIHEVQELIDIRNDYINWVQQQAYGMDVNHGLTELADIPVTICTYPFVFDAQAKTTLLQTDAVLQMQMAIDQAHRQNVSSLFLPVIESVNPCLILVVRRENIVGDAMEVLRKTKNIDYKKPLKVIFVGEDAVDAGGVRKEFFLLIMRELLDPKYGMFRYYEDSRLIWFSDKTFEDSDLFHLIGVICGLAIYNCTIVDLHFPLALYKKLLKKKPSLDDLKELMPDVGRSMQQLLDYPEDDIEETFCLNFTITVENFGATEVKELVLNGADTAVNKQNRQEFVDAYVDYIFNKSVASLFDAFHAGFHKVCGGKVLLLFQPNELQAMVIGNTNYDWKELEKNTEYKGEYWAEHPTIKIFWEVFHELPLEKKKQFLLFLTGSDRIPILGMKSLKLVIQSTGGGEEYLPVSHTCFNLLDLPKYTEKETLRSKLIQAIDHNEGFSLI
Test: Cysteine liganding, probe competition
Type: binding
Outline: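 Read-out is loss of desthiobiotin iodoacetamide labelling at cysteines, measured on streptavidin-enriched tryptic peptides. Compound preincubation ran 1 hr at 25° C in PBS lysate holding 5 mg/ml proteome before the probe was added.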

Structure (SMILES)	Liganded (HERC4 Res# 60, uniprot Q5GLZ8)	100 Max (uniprot Q5GLZ8)	100 ave (uniprot Q5GLZ8)	500 ave (uniprot Q5GLZ8)	500 Max (uniprot Q5GLZ8, unit assumed) [%]
COc1ccc2c(c1)CCCN2C(=O)CCl [KB02]	YES	–	–	–	–
O=C(CCl)Nc1cc(C(F)(F)F)cc(C(F)(F)F)c1 [KBO3]	–	42.0	15.4	58.8	62.3
